Laboratory results published in patent US5498522A, “Methods for the use of spermidine/spermine N^1 -acetyltransferase as a prognostic indicator and/or a tumor response marker” (priority 1993, dated 1996).

Assays:
[1] = test system: spermidine/spermine N^1 -acetyltransferase (SSAT); assay: SSAT induction in human tumor xenografts in athymic mice in-vivo; conditions: for level of induction of SSAT: 40 mg/kg every 8 hours for 5 days, 16 hours after final injection; for Avg. SSAT Activity: measured 24 hours after final treatment (Table 8)
Protocol: (§1) For the in-vivo treatment, 10^7 cultured MALME-3 melanoma cells were injected subcutaneously into 20 gram female nude athymic mice. After four in-vivo passages, tumor was removed and 40-50 mm^3 fragments were selected for implantation into mice via subcutaneous trocar implantation. Mice developing palpable tumors of a similar size were divided into different treatment groups comprising mice per group. Following treatment of the mice with a dosage approaching the maximally tolerated dose of the respective bis-ethyl spermine analog, the tumor cells comprising the human xenograft were removed and assayed for SSAT induction. […] Also indicated in Table 1, the level of SSAT induction in-vivo by BESPM was less than 20 fold that of BEHSPM, and the level of SSAT induction in-vivo by BENSPM was about 6 fold greater than that of BESPM. Thus, a conclusion from the results depicted in Table 1 is the rank order in effectiveness of the his-ethyl spermine analogs to induce SSAT levels in-vitro correlated well with their effectiveness to induce SSAT levels in-vivo.
In accordance with the above methods for assaying the induction of SSAT levels in tumor cell lines treated in-vitro and xenografts treated in-vivo, the induction pattern also correlates fairly well amongst different clonal lines of a particular tumor type. This can be illustrated with melanoma clonal lines LOX, SH-1, PANUT-3, and MALME-3.
In accordance with the above methods for assaying the induction of SSAT levels in tumor cell lines treated in-vitro and xenografts treated in-vivo, the induction pattern also correlates fairly well amongst carcinomas of solid organs. This can be illustrated with malignant clonal lines A121, A549, and HT29.
Note that the highest drug dosages for each analog approach the maximally tolerated dosage for that particular analog (for example, BEHSPM at 6 mg/kg; BESPM at […]; and BENSPN at 80 mg/kg were tolerated by treated animals, whereas higher doses were toxic). Tumor cells comprising the human xenograft were removed from two animals of each group and assayed for SSAT induction. […] Thus, the antitumor activity for these three analogs correlated with their ability to induce SSAT activity in the same tumor cells growing in-vitro and in-vivo, with the rank order of effectiveness in inducing SSAT levels being: BENSPM>BESPM>BEHSPM (Table 4).
Additional studies were performed using BENSPM treatment of human xenografts to determine if there exists a correlation between antitumor activity and SSAT induction in-vivo. SSAT activity was measured using cell extracts obtained by sonication, in 5 mMN-2 hydroxypiperazine-N^2 -ethanesulfonic acid (pH 7.2) containing 1 mM dithiothreitol, of tumor biopsy from treated mice, and tumor biopsy from control mice. The cytosolic extract resulting from a 1 hour centrifugation at 35,000 rpm in a Spinco 40 rotor was used as the source of the enzyme for the assay of SSAT activity. The cytosolic extract was incubated with 10 μmol HEPES buffer, pH7.8, 0.15 nmol spermidine, and 0.5 nmol [1-^14 C] acetylCoenzyme A, in a final volume of 50 μl, for 5 minutes at 37° C. The reaction was stopped by chilling, the addition of 20 μl of 0.5 M NH2 OH.Cl, and heating in a boiling water bath for 3 minutes. After centrifugation to remove precipitated protein, 50 μl of the reaction was spotted on a disc of P-81 phosphocellulose and counted for radioactivity. Protein concentration was also measured so that enzyme activity was expressed as picomoles of acetylspermine synthesized per minute per milligram of protein.
To illustrate this embodiment, SSAT activity was analyzed in tumor tissue and normal tissue from 2 mice following BENSPM treatment of 5 mice at 40 mg/kg, three times daily, for 6 days (Porter et al., 1993, supra). […]

[2] = test system: MALME-3 human melanoma xenografts; assay: antitumor response against MALME-3 human melanoma xenografts in mice; type: in vivo; conditions: for suppression of tumor growth after cessation of treatment: every 8 hours for 6 days, most effective dose; for % T/C (tumor growth suppression) / Regrowth Delay (time for median tumor volume to reach 200 mm^3): maximally tolerated dose
Protocol: b. Anticancer effects of polyamine analog therapy are determined by assessing the antiproliferative activity on the treated solid tumor by measuring one or more responses including tumor growth suppression, tumor regression, or repression of regrowth. Tumors were measured in three dimensions and tumor volume was calculated according to the formula:
[…] where 1 represents length; w--width; and h--height. Tumor sizes were monitored 2 times/week until the median volume (V=0.4(a^2 ×b) where a is the smaller of the two perpendicular tumor diameters). As an indication of drug toxicity, animal weights were also recorded at the time of tumor volume measurement. Statistical analyses were performed on mouse tumor size and weight parameters by using the Mann-Whitney test.
Tumor growth suppression was measured by plotting the mean tumor volume versus the number of days post-inoculation with polyamine analog (growth curve analyses). Suppression is determined by comparison with the growth of untreated tumors (%T/C). More specifically,: %T/C is (treated tumor volume minus pretreatment volume) divided by (control tumor volume minus pretreatment volume)×100. Typically this is measured either when the control tumor volume reaches 1000 mm^3, or at the last day of treatment.
Tumor regression is measured as a percentage representing the average percentage of decrease in tumor volume from the largest pretreatment volume value.
Repression of regrowth is represented as regrowth delay, determined as the number of days following cessation of treatment when median group tumor volume exceeds 200 mm^3 (an arbitrary indication of regrowth which was determined statistically).
as §1
The in-vivo antitumor activities of BESPM, BEHSPM, and BENSPM, were compared against various human xenografts in nude athymic mice. Cultured human tumor cells were first passaged several times in female HSD nude athymic mice. Fragments of resultant tumor were implanted into mice via subcutaneous trocar implantation. Mice of different treatment groups were treated with one or more of the three bis-ethyl spermine analogs BESPM, BEHSPM, and BENSPM. Anti-proliferative activity was monitored by antitumor responses including tumor growth suppression, tumor regression, or repression of regrowth.
As illustrated in Table 1 with MALME-3 human melanoma cells, the rank order effectiveness of three polyamine analogs in inducing SSAT levels both in-vitro and in-vivo were BENSPM>BESPM>BEHSPM, with substantial differences in induction between them. The same three polyamine analogs were analyzed for their effectiveness in inducing a potent antitumor response in-vivo. Mice developing palpable tumors of a similar size were divided into different treatment groups comprising 5 mice per treatment group, and 10 control mice per treatment group. […]

[3] = test system: S-adenosylmethionine decarboxylase (SAMDC); assay: SAMDC activity in human melanoma xenografts in-vivo
[4] = test system: spermidine/spermine N^1 -acetyltransferase (SSAT); conditions: cited from earlier work
[5] = MALME-3 xenograft, maximally tolerated dose, every 8 hours for 6 days
[6] = MALME-3 xenograft, 40 mg/kg every 8 hours for 5 days

CCNCCCCNCCCCNCCCCNCC [BEHSPM, N^1,N^14 -bis(ethyl)homospermine]
SSAT induction in-vivo [1, 5]: 125 pmol/min/mg | suppression of tumor growth after cessation of treatment ([2]; MALME-3 xenograft): 18 days | % T/C (tumor growth suppression) ([2]; MALME-3 xenograft): 43% | Regrowth Delay (time for median tumor volume to reach 200 mm^3) ([2]; MALME-3 xenograft): 14 days | antitumor activity ([2]; MALME-3 xenografts): less effective than BESPM

CCNCCCNCCCNCCCNCC [BENSPM, N^1,N^11 -bis(ethyl)norspermine]
SSAT induction in-vivo ([1]; A121 xenograft, BENSPM 40 mg/kg 3x/day 6 days, 16 hours post-treatment): 2,905 pmol/min/mg | SSAT activity ([1]; A121 xenograft, measured 24 hours after final treatment (Table 9)): 2905 pmol/min/mg | SSAT induction in-vivo ([1]; A549 xenograft, BENSPM 40 mg/kg 3x/day 6 days, 16 hours post-treatment): 14,295 pmol/min/mg | SSAT activity ([1]; A549 xenograft, measured 24 hours after final treatment (Table 9)): 14295 pmol/min/mg | SSAT induction in-vivo ([1]; HT29 xenograft, BENSPM 40 mg/kg 3x/day 6 days, 16 hours post-treatment): 3,535 pmol/min/mg | SSAT activity ([1]; HT29 xenograft, measured 24 hours after final treatment (Table 9)): 3535 pmol/min/mg | level of induction of SSAT ([1]; LOX xenograft): 160 pmol/mg/min | SSAT induction in-vivo ([1]; LOX xenograft, BENSPM 40 mg/kg 3x/day 6 days, 16 hours post-treatment): 160 (200/115) pmol/min/mg | Avg. SSAT Activity ([1]; LOX xenograft): 157 pmol/min/mg | Avg. SSAT Activity ([1]; MALME-3M xenograft): 13,710 pmol/min/mg | SSAT induction in-vivo relative to BESPM ([1]; MALME-3 xenograft): about 6 fold | level of induction of SSAT ([1]; MALME-3 xenograft): 24,018 pmol/mg/min | SSAT induction in-vivo ([1]; MALME-3 xenograft, BENSPM 40 mg/kg 3x/day 6 days, 16 hours post-treatment (Table 2)): 13,710 (11,490/15,930) pmol/min/mg | SSAT induction in-vivo [1, 5]: 15,700 pmol/min/mg | SSAT activity ([1]; PANUT-3 tumor, 80 mg/kg, 2 wks post-treatment): 130 pmol/min/mg | SSAT induction in-vivo ([1]; PANUT-3 xenograft, BENSPM 40 mg/kg 3x/day 6 days, 16 hours post-treatment): 25,575 (23,140/22,010) pmol/min/mg | Avg. SSAT Activity ([1]; PANUT-3 xenograft): 22,750 pmol/min/mg | SSAT induction in-vivo ([1]; SH-1 xenograft, BENSPM 40 mg/kg 3x/day 6 days, 16 hours post-treatment): 7,150 (7,495/6,810) pmol/min/mg | Avg. SSAT Activity ([1]; SH-1 xenograft): 7,150 pmol/min/mg | SSAT induction, relative ([1]; treated in-vitro and in-vivo, compared to two other analogs): greatest induction of SSAT | SAMDC levels ([3]; MALME-3 study): ODC and SAMDC levels were not suppressed | SAMDC levels ([3]; PANUT-3 study): ODC and SAMDC levels were not suppressed | % T/C at 1 g ([2]; MALME-3M, BENSPM at 80 mg/kg): < 0% | Tumor Regression ([2]; MALME-3M, BENSPM at 80 mg/kg): Present | Regrowth Delay ([2]; MALME-3M, BENSPM at 80 mg/kg, dt 13 days): > 4.8 × dt | No Regrowth ([2]; MALME-3M, BENSPM at 80 mg/kg, for duration of experiment): 2/5 | lack of regrowth (FIG. 6) [2, 6]: two mice examined of the remaining five mice treated | regrowth delay (FIG. 6) [2, 6]: significant regrowth delay | tumor regression (FIG. 6) [2, 6]: showed tumor regression | suppression of tumor growth after cessation of treatment ([2]; MALME-3 xenograft): 40 days | % T/C (tumor growth suppression) ([2]; MALME-3 xenograft): 10% | Regrowth Delay (time for median tumor volume to reach 200 mm^3) ([2]; MALME-3 xenograft): 37 days | antitumor activity ([2]; MALME-3 xenografts): most effective of the three | apparent curing of xenografts on retreatment ([2]; MALME-3 xenografts, retreatment 2 weeks later): about 20% | SSAT induction in-vitro, PANUT-3 versus MALME-3 ([4]; BENSPM): induced to greater levels in PANUT-3 than in MALME-3

CCNCCCNCCCCNCCCNCC [BESPM, N^1,N^12-bis(ethyl)spermine]
SSAT induction in-vivo relative to BEHSPM ([1]; MALME-3 xenograft): less than 20 fold | suppression of tumor growth after cessation of treatment ([2]; MALME-3 xenograft): 30 days | % T/C (tumor growth suppression) ([2]; MALME-3 xenograft): 34% | Regrowth Delay (time for median tumor volume to reach 200 mm^3) ([2]; MALME-3 xenograft): 27 days | antitumor activity ([2]; MALME-3 xenografts): significant antitumor activity | SSAT levels after treatment ([4]; MALME-3, in-vitro): extreme induction of SSAT levels
